Legend:
Format in all cases: biochemical
human Plasma Kallikrein = molecular target: T1, human Plasma Kallikrein (Homo sapiens, UniProt P03952); test: Plasma Kallikrein assay (Ki, chromogenic substrate S-2302)
T1 construct: Factor Xa, Thrombin, and Plasma Kallikrein Assays
Protocol: (§1) Factor Xa, Thrombin, and Plasma Kallikrein Assays
(§2) These procedures can be used to determine the constant of inhibition (Ki) for a sample compound of the invention.
(§3) 1. Add 50 μL sample to each well.
(§4) 2. Add 50 μL appropriately diluted coagulation factor to each well.
(§5) 3. Incubate for 5 minutes at room temperature with gentle agitation.
(§6) 4. Add 50 μL appropriately diluted substrate to each well.
(§7) 5. Agitate plate for 20-25 sec.
(§8) 6. Monitor absorbance at 405 nm every 10 sec for a total of 5 minutes at room temperature.
(§9) 7. Calculate Vmax over 10 points.
(§10) Assay—Enzyme, Substrate and Final Concentrations

[1] = molecular target: T2, Tissue Factor/factor VIIa (recombinant human factor VIIa, soluble Tissue Factor (1-219)) (Homo sapiens, UniProt P08709); test: Tissue Factor/Factor VIIa antagonist assay (Ki, chromogenic substrate Chromozym-tPA); conditions: read-out: Ki(TFVIIa)
T2 construct: recombinant human factor VIIa (NB #25942-16); NB #25942-16
Protocol: Tissue Factor/Factor VIIa Antagonist Assay
This procedure can be used to determine the constant of inhibition (Ki) for a sample compound of the invention.
1. Prepare a solution of 2 μg/mL (90 nM) tissue factor and 1.5 μg/mL (30 nM) factor VIIa in assay buffer with CaCl2.
2. Incubate for 15 minutes at room temperature.
3. Add 50 μL sample to each well.
4. Add 50 μL tissue factor/factor VIIa solution to each well.
5. Incubate for 15 minutes at room temperature with gentle agitation.
6. Add 50 μL substrate to each well.
7. Agitate plate for 20-25 sec.
8. Monitor absorbance at 405 nm every 10 sec for a total of 5 minutes at room temperature.
9. Calculate Vmax over 10 points.
as §10

human Factor Xa = molecular target: T3, human Factor Xa (Homo sapiens, UniProt P00742); test: Factor Xa assay (Ki, chromogenic substrate S-2222)
T3 construct: This complex converts factor X to Xa
Protocol: as §1, §2, §3, §4, §5, §6, §7, §8, §9, §10

human Thrombin = molecular target: T4, human Thrombin (Homo sapiens, UniProt P00734); test: Thrombin assay (Ki, chromogenic substrate S-2366); conditions: read-out: Ki(IIa)
T4 construct: rapidly converts prothrombin to thrombin
Protocol: as §1, §2, §3, §4, §5, §6, §7, §8, §9, §10

T3 sequence (P00742 235-488 limits assumed): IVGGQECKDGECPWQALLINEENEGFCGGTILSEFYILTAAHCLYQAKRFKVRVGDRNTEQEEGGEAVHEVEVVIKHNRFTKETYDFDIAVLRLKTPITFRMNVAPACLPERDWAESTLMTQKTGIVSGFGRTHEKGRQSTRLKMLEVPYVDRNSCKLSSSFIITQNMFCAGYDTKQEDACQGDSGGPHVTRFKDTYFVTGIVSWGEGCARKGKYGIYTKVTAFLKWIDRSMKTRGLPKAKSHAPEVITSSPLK
T3 sequence (P00742 41-179 limits assumed): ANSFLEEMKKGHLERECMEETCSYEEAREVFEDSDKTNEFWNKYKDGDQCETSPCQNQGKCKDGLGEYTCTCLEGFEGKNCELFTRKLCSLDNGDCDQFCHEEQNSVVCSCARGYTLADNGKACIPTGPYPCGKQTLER
T1 sequence (P03952 391-638 limits assumed): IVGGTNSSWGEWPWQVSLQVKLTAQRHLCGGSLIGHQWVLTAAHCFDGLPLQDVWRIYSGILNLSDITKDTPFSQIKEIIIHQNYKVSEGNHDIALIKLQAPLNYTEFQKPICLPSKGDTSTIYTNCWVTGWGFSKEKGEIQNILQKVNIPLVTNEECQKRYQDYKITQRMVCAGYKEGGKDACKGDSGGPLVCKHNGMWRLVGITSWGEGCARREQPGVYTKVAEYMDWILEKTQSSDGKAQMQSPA
T1 sequence (P03952 20-390 limits assumed): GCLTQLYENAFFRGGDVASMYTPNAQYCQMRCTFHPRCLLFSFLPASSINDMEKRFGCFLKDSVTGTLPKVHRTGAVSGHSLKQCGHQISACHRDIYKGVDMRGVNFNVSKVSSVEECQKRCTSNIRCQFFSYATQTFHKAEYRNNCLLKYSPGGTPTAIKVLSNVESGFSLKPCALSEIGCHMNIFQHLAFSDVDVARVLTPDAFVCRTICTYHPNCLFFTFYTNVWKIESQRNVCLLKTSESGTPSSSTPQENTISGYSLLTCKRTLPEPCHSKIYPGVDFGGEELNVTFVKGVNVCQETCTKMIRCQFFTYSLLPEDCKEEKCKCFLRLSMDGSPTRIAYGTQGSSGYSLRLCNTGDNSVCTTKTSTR
T2 sequence (P08709 213-466 limits assumed): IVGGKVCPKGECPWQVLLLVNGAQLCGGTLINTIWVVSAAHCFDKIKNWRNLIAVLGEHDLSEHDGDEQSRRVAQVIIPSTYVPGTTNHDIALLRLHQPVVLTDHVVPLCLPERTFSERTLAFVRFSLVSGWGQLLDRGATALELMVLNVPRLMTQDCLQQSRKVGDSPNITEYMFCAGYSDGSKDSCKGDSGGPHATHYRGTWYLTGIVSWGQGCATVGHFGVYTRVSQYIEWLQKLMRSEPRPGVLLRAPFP
T2 sequence (P08709 61-212 limits assumed): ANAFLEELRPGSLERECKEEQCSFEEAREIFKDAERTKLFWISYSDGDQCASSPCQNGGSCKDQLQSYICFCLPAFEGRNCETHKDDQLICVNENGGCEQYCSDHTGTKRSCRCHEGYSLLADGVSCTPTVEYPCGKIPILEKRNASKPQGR
T2 sequence (P13726 33-251 partner limits assumed): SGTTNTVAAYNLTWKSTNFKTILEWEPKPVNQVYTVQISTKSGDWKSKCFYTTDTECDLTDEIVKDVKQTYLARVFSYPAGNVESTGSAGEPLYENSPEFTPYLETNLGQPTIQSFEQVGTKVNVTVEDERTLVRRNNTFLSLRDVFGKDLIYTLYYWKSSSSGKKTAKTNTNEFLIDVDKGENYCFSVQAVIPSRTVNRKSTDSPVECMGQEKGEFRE

Row | Compound | Ki (human Plasma Kallikrein) [nM] | Ki [1] [nM] | Ki (human Factor Xa) [nM] | Ki (human Thrombin) [nM]
1 | CCCS(=O)(=O)NCC(Nc1ccc(C(=N)N)cc1)c1cc(OCC)c(OC(C)C)cc1NS(C)(=O)=O (stereo not shown) | 1 | – | – | –
2 | CCOc1ccc(C(Nc2ccc(C(=N)N)cc2)C(=O)NS(=O)(=O)c2ccccc2)cc1OCC (stereo not shown) | 2 | 5 | – | –
3 | CCOc1cc(C(Nc2ccc(C(=N)N)cc2)C(=O)NS(=O)(=O)CC)ccc1OC(C)C (stereo not shown) [4-{2-ethylsulfonylamino-1-[4-isopropoxy,5-ethoxy)-phenyl]-2-oxo-ethylamino}benzamidine] | 11 | – | 565 | –
4 | CCOc1cc(C(Nc2ccc(C(=N)N)cc2)C(=O)NS(=O)(=O)c2ccccc2)ccc1OC(C)C (stereo not shown) [4-{2-benzenesulfonylamino-1-[4-isopropoxy,5-ethoxy)-phenyl]-2-oxo-ethylamino}benzamidine] | – | 3 | 898 | 113
5 | CCCS(=O)(=O)NCC(Nc1ccc(C(=N)N)cc1)c1cc(OCC)c(OCc2ccccc2)cc1NS(C)(=O)=O (stereo not shown) [4-[1-(4-Benzyloxy-5-ethoxy-2-methanesulfonylamino-phenyl)-2-(propane-1-sulfonylamino)-ethylamino]benzamidine] | – | 4 | – | –
6 | CCCS(=O)(=O)NCC(Nc1ccc(C(=N)N)cc1)c1cc(OCC)c(OCC(C)C)cc1NS(=O)(=O)CCC (stereo not shown) | 1 | – | – | –
7 | COc1cc(C(CNS(=O)(=O)c2cccs2)Nc2ccc(C(=N)N)cc2)ccc1OCc1ccccc1 (stereo not shown) [4-[1-(4-Benzyloxy-3-methoxy-phenyl)-2-(thiophene-2-sulfonylamino)-ethylamino]-benzamidine] | – | – | – | 16
8 | CCCS(=O)(=O)NCC(Nc1ccc(C(=N)N)cc1)c1ccc(OC(CCl)c2ccccc2)c(OC)c1 (stereo not shown) [4-{2-propanesulfonylamino-1-[4-(2-chloro-1-phenyl-ethoxy)-3-methoxy-phenyl]-ethylamino}-benzamidine] | – | – | 140 | 1
9 | COc1cc(C(CNS(=O)(=O)c2ccccc2)Nc2ccc(C(=N)N)cc2)ccc1OC(CCl)c1ccccc1 (stereo not shown) [4-{2-benzenesulfonylamino-1-[4-(2-chloro-1-phenyl-ethoxy)-3-methoxy-phenyl]-ethylamino}-benzamidine] | – | – | – | 1
10 | CCOc1cc(OCC)cc(C(Nc2ccc(C(=N)N)cc2)C(=O)NS(=O)(=O)c2ccccc2)c1 (stereo not shown) | – | 7 | – | –
11 | CCCCS(=O)(=O)NC(=O)C(Nc1ccc(C(=N)N)cc1)c1ccc(OC(C)C)c(OCC)c1 (stereo not shown) [4-{2-butylsulfonylamino-1-[4-isopropoxy,5-ethoxy)-phenyl]-2-oxo-ethylamino}benzamidine] | – | – | 624 | –
